Experimental data from patent publication EP4685136A1, “AMINO LIPID, AND LIPID NANOPARTICLES AND USE THEREOF” (Shenzhen MagicRNA Biotechnology Co., Ltd., priority 2023, dated 2024).

What was measured:
[1] = Particle size and PDI of Luc-mRNA lipid nanoparticles (Nano-ZS ZEN3600, Malvern); format: physicochemical; conditions: LNP of amino lipid:DSPC:cholesterol:DMG-PEG2000 47.5:10:41:1.5 with Luc-mRNA; lipid to mRNA mass ratio about 40:1
Protocol: (§1) The amino lipid compound of the present invention (or DLin-MC3 or SM-102 (both purchased from AVT (Shanghai) Pharmaceutical Technology Co., Ltd.)), phospholipid lipid (DSPC), cholesterol, and PEGylated lipid (DMG-PEG2000) were mixed and dissolved in anhydrous ethanol at a molar ratio of 47.5:10:41:1.5. The resulting ethanol solution and citric acid buffer (50 mM, pH = 4.0) dissolved with Luc-mRNA (TriLink) were mixed in a microfluidic chip at a volume ratio of 1:3 using a microfluidic preparation system to prepare a crude solution of lipid nanoparticles, which was then dialyzed in 1X PBS at 4°C for 6 h using a dialysis cassette (Fisher, MWCO 20,000). The product was filtered through a 0.22 µm microporous filter membrane before use. The mass ratio of the amino lipid compound to luciferase mRNA (Luc mRNA) was about 40:1.
The particle size and PDI (polydispersity index) of the prepared lipid nanoparticles were measured by Nano-ZSZEN3600 (Malvern). 20 µL of lipid nanoparticle (LNP) solution was taken for particle size measurement, and cycled three times with each cycle for 30 s.

[2] = Encapsulation efficiency of Luc-mRNA lipid nanoparticles (Quant-iT RiboGreen RNA Kit); format: physicochemical; conditions: LNP of amino lipid:DSPC:cholesterol:DMG-PEG2000 47.5:10:41:1.5 with Luc-mRNA; lipid to mRNA mass ratio about 40:1
Protocol: as §1
The encapsulation efficiency was determined according to the standard procedure of the Quant-iT RiboGreen RNA Kit. Table 1 Characterization data of LNPs prepared using representative amino lipid compounds

C57BL/6 mice = experiment: In vivo delivery of luciferase mRNA by intramuscular injection of LNPs (IVIS imaging); conditions: total fluorescence intensity, Luc mRNA LNP, 0.5 mg/kg mRNA, 12 hours
Protocol: Preparation of lipid nanoparticles: same as Example 36.
(§2) Animal preparation: 6-week-old female C57BL/6 mice weighing about 20 g were selected and raised in an SPF-grade feeding room. Animal experiments were conducted strictly in accordance with the guidelines of the National Institutes of Health and animal ethics requirements.
In vivo delivery: Five C57BL/6 mice were randomly selected from each group and injected with lipid nanoparticle solution at a dose of 0.5 mg/kg mRNA by intramuscular injection. Twelve hours later, 200 µL of 10 mg/mL D-luciferin potassium salt was injected into the peritoneal cavity of each mouse. Five minutes later, the mice were placed under an in vivo imaging system (IVIS-200, Xenogen) to observe the total fluorescence intensity of each mouse and take photos for recording. The expression intensity of Luc mRNA delivered by intramuscular injection of LNPs composed of representative amino lipid compounds is shown in Table 3, with DLin-MC3 and SM-102 as controls. Table 3 Expression intensity of Luc mRNA delivered by intramuscular injection of LNPs composed of representative amino lipids

primary BMDC cells = experiment: Transfection of Luc mRNA lipid nanoparticles on primary BMDC cells (ONE-Glo luciferase readout); format: cell-based, C57BL/6 mice; conditions: expression intensity of Luc mRNA on BMDCs; 10 µL LNP per well, 20,000 cells per well, 12 hours
Protocol: as §2
Cell acquisition: C57BL/6 mice were sacrificed by cervical dislocation and immersed in 75% alcohol for 5 minutes for disinfection. The thigh and tibia of the mice were dissected and the attached muscles were removed to expose the bone. The bone marrow in the tibia was blown out with a 1 mL syringe filled with PBS. The obtained bone marrow was dispersed by blowing and filtered through a 50 µm filter mesh to remove impurities. Red blood cell lysis solution (3-4 mL) was added to the obtained filtrate and allowed to stand for 5 minutes. Then, the supernatant was removed by centrifugation at 800 g for 5 minutes. The obtained cells were placed in 1640 culture medium (containing 10% fetal bovine serum, 20 ng/mL GMCSF, 10 ng/mL IL4) for being resuspended, and inoculated into 6-well plates at a density of 100,000 cells/mL of culture medium. The plates were placed in a cell culture incubator containing 5% CO2 at 37°C, and the medium was half-changed every 2 days. On the seventh day, the suspended cells and loosely adherent cells were collected and inoculated into 96-well all-white ELISA plates at a density of 20,000 cells per well, with a culture medium volume of 100 µL.
Cell transfection: the lipid nanoparticles encapsulating luciferase mRNA were added to a 96-well all-white ELISA plate with spreaded primary cells, and the volume of mRNA lipid nanoparticles added to each well was controlled to be 10 µL. Then, the plate was placed in an incubator with 5% CO2 concentration at 37°C for 12 hours.
Transfection efficiency detection: 20 µL of substrate ONE-Glo™ Luciferase was added to each well of a 96-well all-white ELISA plate, and the assay was performed using a multifunctional microplate reader (Biorek SynergyH1) after 1 min. The expression intensity of Luc mRNA transfected on BMDCs by lipid nanoparticles (LNPs) composed of representative amino lipid compounds is shown in Table 2, with DLin-MC3 and SM0102 as controls. Table 2 Expression intensity of transfection of representative amino lipid compounds on BMDCs

Compound | Average particle size (nm) [1] [nm] | PDI [1] | Encapsulation efficiency (%) [2] [%] | Fluorescence intensity (C57BL/6 mice) | Luminescence intensity (primary BMDC cells)
CCCCCCCCCCC(COC(=O)CCCCC)OC(=O)CCCCCN(CCCCCC(=O)OC(CCCCCCCCCC)COC(=O)CCCCC)[C@H]1CC[C@H](O)CC1 (relative stereo) [E12LA6B6O10] | 102 | 0.10 | 93.0 | 1.6E+09 | 
CCCCCCC(COC(=O)C(CCCCC)CCCCC)OC(=O)CCCCCN(CCCO)CCCCCC(=O)OC(CCCCCC)COC(=O)C(CCCCC)CCCCC (centres unmarked) [E8CA5B6O3] | 69 | 0.06 | 95.8 |  | 2.3E+05
CCCCCCC(COC(=O)CCCCC)OC(=O)CCCCCN(CCCCCC(=O)OC(CCCCCC)COC(=O)CCCCC)CCCOC(=O)CCCCCCN(C)C (centres unmarked) [E8LA6B6O3A6] | 108 | 0.07 | 97.6 |  | 2.8E+05
CCCCCCCCCCCC(=O)OCC(CCCCCC)OC(=O)CCCCCN(CCCO)CCCCCC(=O)OC(CCCCCC)COC(=O)CCCCCCCCCCC (centres unmarked) [E8LA12B6O3] | 72 | 0.09 | 95.67 |  | 
CCCCCCCCC(COC(=O)CCCCCCC)OC(=O)CCCCCN(CCCO)CCCCCC(=O)OC(CCCCCCCC)COC(=O)CCCCCCC (centres unmarked) [E10LA8B6O3] | 71 | 0.11 | 92.23 | 1.8E+09 | 
CCCCCCCCCCC(COC(=O)CCCCC)OC(=O)CCCCCN(CCCCCC(=O)OC(CCCCCCCCCC)COC(=O)CCCCC)CCCOC(=O)CCN1CCN(C)CC1 (centres unmarked) [E12LA6B6O3A2] |  |  |  |  | 4.0E+05
CCCCCCCCCCC(COC(=O)CCCCC)OC(=O)CCCCCN(CCCCCC(=O)OC(CCCCCCCCCC)COC(=O)CCCCC)CCCOC(=O)CCCN1CCN(C)CC1 (centres unmarked) [E12LA6B6O3A3] | 53 | 0.07 | 94.6 |  | 
CCCCCCCCCCC(COC(=O)CCCCC)OC(=O)CCCCCN(CCCCCC(=O)OC(CCCCCCCCCC)COC(=O)CCCCC)CCCOC(=O)CCN(C)C (centres unmarked) [E12LA6B6O3A4] | 80 | 0.03 | 90.7 |  | 
CCCCCCCCCCC(COC(=O)CCCCC)OC(=O)CCCCCN(CCCCCC(=O)OC(CCCCCCCCCC)COC(=O)CCCCC)CCCOC(=O)CCCCN(C)C (centres unmarked) [E12LA6B6O3A5] | 117 | 0.08 | 97.8 |  | 1.5 E+05
CCCCCCCCCCC(COC(=O)CCCCC)OC(=O)CCCCCN(CCCCCC(=O)OC(CCCCCCCCCC)COC(=O)CCCCC)CCCOC(=O)C1CCN(C)CC1 (centres unmarked) [E12LA6B6O3A7] | 110 | 0.05 | 96.5 |  | 7.3 E+04
CCCCCCCCCCC(COC(=O)CCCCC)OC(=O)CCCCCN(CCCCCC(=O)OC(CCCCCCCCCC)COC(=O)CCCCC)CCCOC(=O)CCN1CCCCC1 (centres unmarked) [E12LA6B6O3A8] | 124 | 0.06 | 95.3 |  | 1.9 E+05
CCCCCCCCCCC(COC(=O)CCCCC)OC(=O)CCCCCN(CCCCC)CCCCCC(=O)OC(CCCCCCCCCC)COC(=O)CCCCC (centres unmarked) [E12LA6B6O9] | 95 | 0.11 | 93.2 |  | 2.2 E+05
CCCCCCCCCCC(COC(=O)CCCCC)OC(=O)CCCCCN(CCCCCC(=O)OC(CCCCCCCCCC)COC(=O)CCCCC)CCCN(C)C (centres unmarked) [E12LA6B6O12] | 97 | 0.05 | 97.6 |  | 4.9 E+04
CCCCCCCCCCC(COC(=O)CCCCC)OC(=O)CCCCCN(CCCCCC(=O)OC(CCCCCCCCCC)COC(=O)CCCCC)CCN1CCCCC1 (centres unmarked) [E12LA6B6O13] | 83 | 0.01 | 94.4 |  | 
CCCCCCCCCCC(COC(=O)CCCCC)OC(=O)CCCCCN(CCCCCC(=O)OC(CCCCCCCCCC)COC(=O)CCCCC)CCN1CCC(O)CC1 (centres unmarked) [E12LA6B6O15] | 90 | 0.12 | 95.2 |  | 
CCCCCCCCCCCC(=O)OCC(CCCCCCCCCC)OC(=O)CCCCCN(CCCCCC(=O)OC(CCCCCCCCCC)COC(=O)CCCCCCCCCCC)CCCNC(=O)CCCN(C)C (centres unmarked) [E12LA12B6O3A11] | 132 | 0.09 | 95.6 |  | 1.4E+05
CCCCCCCCCCCC(=O)OCC(CCCCCCCCCC)OC(=O)CCCCCN(CCCO)CCCCCC(=O)OC(CCCCCCCCCC)COC(=O)CCCCCCCCCCC (centres unmarked) [E12LA12B6O3] | 73 | 0.09 | 97.5 |  | 4.1E+05
CCCCCCCCCCCC(=O)OCC(CCCCCCCCCC)OC(=O)CCCCCN(CCCCCC(=O)OC(CCCCCCCCCC)COC(=O)CCCCCCCCCCC)CCCC(=O)OCCCN(C)C (centres unmarked) [E12LA12B6O30A9] | 121 | 0.14 | 92.4 |  | 2.7 E+05
CCCCCCCCCCCC(=O)OCC(CCCCCCCCCC)OC(=O)CCCCCN(CCCCCC(=O)OC(CCCCCCCCCC)COC(=O)CCCCCCCCCCC)CCCC(=O)NCCCN(C)C (centres unmarked) [E12LA12B6O30A10] | 117 | 0.08 | 91.8 |  | 4.1E+05
CCCCCCCCCCCC(=O)OCC(CCCCCCCCCC)OC(=O)CCCCCN(CCCCCC(=O)OC(CCCCCCCCCC)COC(=O)CCCCCCCCCCC)CCCC(=O)O (centres unmarked) [E12LA12B6O30] | 127 | 0.03 | 98.2 |  | 
CCCCCCCCCCCC(=O)OCC(CCCCCCCCCC)OC(=O)CCCCCN(CCCC#N)CCCCCC(=O)OC(CCCCCCCCCC)COC(=O)CCCCCCCCCCC (centres unmarked) [E12LA12B6O31] | 130 | 0.04 | 98.4 |  | 9.6 E+04
CCCCCCCCCCC(CNC(=O)CCCCC)NC(=O)CCCCCN(CCCO)CCCCCC(=O)NC(CCCCCCCCCC)CNC(=O)CCCCC (centres unmarked) [E12N2LA6B6O3] | 168 | 0.06 | 90.3 |  | 
CCCCCCCCCCC(CCCOC(=O)CCCCC)OC(=O)CCCCCN(CCCO)CCCCCC(=O)OC(CCCCCCCCCC)CCCOC(=O)CCCCC (centres unmarked) [K4LA6B6O3] | 120 | 0.06 | 98.9 |  | 4.9 E+05
CCCCCCCCCCC(CCCCOC(=O)CCCCC)OC(=O)CCCCCN(CCCO)CCCCCC(=O)OC(CCCCCCCCCC)CCCCOC(=O)CCCCC (centres unmarked) [K5LA6B6O3] | 106 | 0.03 | 96.2 |  | 4.8E+05
